The record followed here is ChEMBL document CHEMBL2169860, “Design of a hypoxia-activated prodrug inhibitor of O6-alkylguanine-DNA alkyltransferase” (Bioorg Med Chem Lett, 2012).

The test system of series [1] is EMT6. Put plainly: Stability of the compound in mouse EMT6 cells assessed as parent compound level under hypoxic condition at 200 uM after 1 hr by HPLC analysis. In kind it is ADME, cell-based. The settings on record: emt6, 1 h.
In series [2] the test system is EMT6. Description: Stability of the compound in mouse EMT6 cells assessed as parent compound level under oxic condition at 200 uM after 1 hr by HPLC analysis. Format: ADME, cell-based. The settings on record: emt6, 1 h.
Series [3] deals with EMT6. Description: Potentiation of laromustine-induced cytotoxicity against mouse EMT6 cells expressing human AGT assessed as cell survival fraction at 2 uM treated 2 hrs before laromustine addition measured after 18 hrs by clonogenic assay. Format: functional, cell-based.
The subject of series [4] is EMT6. Put plainly: Cytotoxicity against mouse EMT6 cells expressing human AGT assessed as cell survival fraction at 2 uM after 18 hrs by clonogenic assay. Format: cell-based. The settings on record: emt6, 18 h.
Series [5] concerns the target T1, Methylated-DNA--protein-cysteine methyltransferase (Homo sapiens, UniProt P16455).
T1 sequence (P16455 whole entry): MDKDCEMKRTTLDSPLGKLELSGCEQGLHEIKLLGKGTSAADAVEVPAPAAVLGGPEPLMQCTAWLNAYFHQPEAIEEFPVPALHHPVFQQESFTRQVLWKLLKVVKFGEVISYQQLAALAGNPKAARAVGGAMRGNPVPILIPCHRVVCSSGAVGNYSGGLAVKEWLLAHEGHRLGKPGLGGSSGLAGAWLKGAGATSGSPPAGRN
Description: Inhibition of AGT in human HL60 cells assessed as AGT levels using [3H]AGT after 2 hrs

Series [6] relates to EMT6. Put plainly: Prodrug activation in mouse EMT6 cells assessed as 6-((3-((dimethylamino)methyl)benzyl)oxy)-9H-purin-2-amine level under hypoxic condition at 200 uM after 1 hr by HPLC analysis. In kind it is cell-based. The settings on record: emt6, 1 h.
Series [7] relates to EMT6. Put plainly: Prodrug activation in mouse EMT6 cells assessed as 6-((3-((dimethylamino)methyl)benzyl)oxy)-9H-purin-2-amine level under oxic condition at 200 uM after 1 hr by HPLC analysis. Format: cell-based. To be noted: emt6, 1 h.

pIC50: −log10 of the molar value. Active and inactive are the calls of the source. The rule behind the calls is not given here.

What is called pIC50 is the negative decadic logarithm of the IC50, by convention in mol/L. For `CN(C)Cc1cccc(COc2nc(N)nc3[nH]cnc23)c1`, the Stability in series [1] amounted to 12.3 µM; in series [2] it was 0.2 µM. Besides, the result in series [3] was Active. The Activity result in series [4] is reported as “Non-toxic”. In addition, the pIC50 in series [5] is 7.60.
As for `Nc1nc(OCc2ccccc2)c2nc[nH]c2n1`, the outcome in series [3] was Active.
For `Nc1nc(OCc2ccccc2)c2[nH]cnc2n1` [6-O-BENZYLGUANINE], the Activity result in series [4] is recorded as “Non-toxic”.
Consider `CC(=O)NCc1cccc(COc2nc(N)nc3[nH]cnc23)c1`, for which the outcome in series [3] was Active. Also, the Activity result in series [4] is given as “Non-toxic”. In series [5], this compound had a pIC50 of 7.07.
Turning to `NCc1cccc(COc2nc(N)nc3nc[nH]c23)c1`, the outcome in series [3] was Active. Besides, the Activity result in series [4] is given as “Non-toxic”.
Turning to `CN(C)Cc1cccc(COc2nc(NC(=O)OC(C)(C)c3ccc([N+](=O)[O-])cc3)nc3[nH]cnc23)c1`, the Drug metabolism in series [6] was 149.6 µM; in series [7] it was 195.5 µM.
